What was measured:
HiBit-KRAS^G12C [1] = molecular target: T1, HiBit-KRAS^G12C (Homo sapiens, UniProt P01116, G12C); test: HiBit degradation assay in MiaPaCa-2 HiBit-KRas^G12C cells; format: cell-based; settings: 24 hours; for Dmax / KRas^G12C-HiBiT (MiaPaCa; 0.5% DMSO) DMax: maximum degradation
How it was run: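 DC50 and Dmax come from 4-parameter fits of DMSO-normalized HiBit luminescence after 24 hours' exposure at 37° C to 10 μM–20 nM compound in 0.1% or 0.5% DMSO. Cells: MiaPaCa-2 carrying one endogenously HiBit-tagged KRAS^G12C allele; concentrations causing ≥50% […] viability loss (alamar blue) excluded.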

HiBit-KRAS^G12C [2] = molecular target: T1, HiBit-KRAS^G12C; test: HiBit degradation assay in SW1573 HiBit-KRas^G12C cells; format: cell-based; set-up: expressed in transfected cells; host or cells: SW1573 (clone E6), modified pcDNA3.1 vector, TK promoter; settings: 24 hours; for Dmax: SW1573, SW1573 HiBit-KRas^G12C; for KRas^G12C-HiBiT (SW1573; 0.5% DMSO) Dmax** / DC50: SW1573 HiBit-KRas^G12C
How it was run: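 HiBit-KRAS G12C degradation was measured after a 24 h compound exposure (titrated 10 μM–20 nM) in engineered SW1573 cells. Lytic HiBit luminescence, expressed relative to DMSO controls, yielded DC50 and Dmax from 4-parameter fits. Concentrations causing ≥50% loss in alamar blue viability were omitted as cytotoxic.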

[3] = MIA PaCa-2, MiaPaCa-2 HiBit-KRas^G12C cells, 0.5% DMSO, read-out: KRas^G12C-HiBiT (MiaPaCa; 0.5% DMSO) DMax
[4] = 0.5% DMSO, read-out: KRas^G12C-HiBiT (SW1573; 0.5% DMSO) Dmax**
[5] = MiaPaCa-2 HiBit-KRas^G12C cells, 0.5% DMSO
[6] = read-out: KRas^G12C-HiBiT (MiaPaCa; 0.5% DMSO) IC50, MiaPaCa-2 HiBit-KRas^G12C cells, 0.5% DMSO
[7] = read-out: KRas^G12C-HiBiT (SW1573; 0.5% DMSO) IC50***, 0.5% DMSO
[8] = 0.1% DMSO, read-out: KRas^G12C-HIBit (SW1573; 0.1% DMSO) DC50*
[9] = MIA PaCa-2, read-out: KRas^G12C-HiBiT (MiaPaCa; 0.1% DMSO) DMax, MiaPaCa-2 HiBit-KRas^G12C cells, 0.1% DMSO

T1 sequence (P01116 1-186 isoform P01116-2 G12C limits assumed): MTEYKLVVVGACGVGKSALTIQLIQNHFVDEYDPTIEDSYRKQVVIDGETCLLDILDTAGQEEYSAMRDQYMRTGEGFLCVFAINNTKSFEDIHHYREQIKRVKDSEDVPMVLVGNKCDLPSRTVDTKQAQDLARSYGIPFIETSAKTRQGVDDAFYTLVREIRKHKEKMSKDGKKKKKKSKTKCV

Row | Compound | Dmax (HiBit-KRAS^G12C [1]; [3]) [%] | KRas^G12C-HiBiT (SW1573; 0.5% DMSO) Dmax** (HiBit-KRAS^G12C [2]; 0.5% DMSO) | DC50 (HiBit-KRAS^G12C [1]; [6]) [nM] | DC50 (HiBit-KRAS^G12C [2]; [7]) [nM] | DC50 (HiBit-KRAS^G12C [2]; [8]) [nM] | Dmax (HiBit-KRAS^G12C [1]; [9]) [%] | also measured
1 | C=CC(=O)N1CCN(c2nc(OCCN3CCC(COCC(=O)N[C@H](C(=O)N4C[C@@H](O)C[C@H]4C(=O)N[C@@H](C)c4ccc(-c5scnc5C)cc4)C(C)(C)C)CC3)nc3c(F)c(-c4cc(O)cc5ccccc45)c(Cl)cc23)C[C@@H]1CC#N (atropisomer, axis not shown) [Compound 162, (2S,4S)-1-[(2S)-2-[2-({1-[2-({6-chloro-4-[(3S)-3-(cyanomethyl)-4-(prop-2-enoyl)piperazin-1-yl]-8-fluoro-7-(3-hydroxynaphthalen-1-yl)quinazolin-2-yl}oxy)ethyl]piperidin-4-yl}methoxy)acetamido]-3,3-dimethylbutanoyl]-4-hydroxy-N-[(1S)-1-[4-(4-methyl-1,3-thiazol-5-yl)phenyl]ethyl]pyrrolidine-2-carboxamide] | 35 to 70 | – | – | – | – | – | Dmax (HiBit-KRAS^G12C [2]; [4]): < 35%
2 | C=CC(=O)N1CCN(c2nc(OCCN3CCC(COCC(=O)N[C@H](C(=O)N4C[C@H](O)C[C@H]4C(=O)N[C@@H](C)c4ccc(-c5scnc5C)cc4)C(C)(C)C)CC3)nc3c(F)c(-c4cc(O)cc5ccccc45)c(Cl)cc23)C[C@@H]1CC#N (atropisomer, axis not shown) [Compound 163, (2S,4R)-1-[(2S)-2-[2-({1-[2-({6-chloro-4-[(3S)-3-(cyanomethyl)-4-(prop-2-enoyl)piperazin-1-yl]-8-fluoro-7-(3-hydroxynaphthalen-1-yl)quinazolin-2-yl}oxy)ethyl]piperidin-4-yl}methoxy)acetamido]-3,3-dimethylbutanoyl]-4-hydroxy-N-[(1S)-1-[4-(4-methyl-1,3-thiazol-5-yl)phenyl]ethyl]pyrrolidine-2-carboxamide] | – | A (A ≥ 70) | – | – | – | – | KRas^G12C-HiBiT (MiaPaCa; 0.5% DMSO) DMax (HiBit-KRAS^G12C [1]; [5]): A (A ≥ 70)
3 | C=C(F)C(=O)N1CCN(c2nc(OCCN3CCC(COc4cc([C@H](C(=O)N5C[C@H](O)C[C@H]5C(=O)N[C@@H](C)c5ccc(-c6scnc6C)cc5)C(C)C)on4)CC3)nc3c(F)c(-c4cc(O)cc5ccccc45)c(Cl)cc23)C[C@@H]1CC#N (atropisomer, axis not shown) [Compound 166, (2S,4R)-1-[(2R)-2-[3-({1-[2-({6-chloro-4-[(3S)-3-(cyanomethyl)-4-(2-fluoroprop-2-enoyl)piperazin-1-yl]-8-fluoro-7-(3-hydroxynaphthalen-1-yl)quinazolin-2-yl}oxy)ethyl]piperidin-4-yl}methoxy)-1,2-oxazol-5-yl]-3-methylbutanoyl]-4-hydroxy-N-[(1S)-1-[4-(4-methyl-1,3-thiazol-5-yl)phenyl]ethyl]pyrrolidine-2-carboxamide] | – | B (35 < B < 70) | > 1000 | 100 to 1000 | – | – | –
4 | C=C(F)C(=O)N1CCN(c2nc(OCCN3CCC(COc4cc([C@H](C(=O)N5C[C@H](O)C[C@H]5C(=O)N[C@@H](C)c5ccc(-c6scnc6C)cc5)C(C)C)on4)CC3)nc3c(F)c(-c4cc(O)cc5ccccc45)c(Cl)cc23)C[C@@H]1CC#N (atropisomer, axis not shown) [Compound 167, (2S,4R)-1-[(2R)-2-[3-({1-[2-({6-chloro-4-[(3S)-3-(cyanomethyl)-4-(2-fluoroprop-2-enoyl)piperazin-1-yl]-8-fluoro-7-(3-hydroxynaphthalen-1-yl)quinazolin-2-yl}oxy)ethyl]piperidin-4-yl}methoxy)-1,2-oxazol-5-yl]-3-methylbutanoyl]-4-hydroxy-N-[(1S)-1-[4-(4-methyl-1,3-thiazol-5-yl)phenyl]ethyl]pyrrolidine-2-carboxamide] | > 70 | A (A ≥ 70) | < 100 | < 100 | – | – | –
5 | C=CC(=O)N1CCN(c2nc(OCCN3CCC(COc4cc([C@H](C(=O)N5C[C@H](O)C[C@H]5C(=O)N[C@@H](C)c5ccc(-c6scnc6C)cc5)C(C)C)on4)CC3)nc3c(F)c(-c4cc(O)cc5ccccc45)c(Cl)cc23)C[C@@H]1CC#N (atropisomer, axis not shown) [Compound 173, (2S,4R)-1-[(2R)-2-[3-({1-[2-({6-chloro-4-[(3S)-3-(cyanomethyl)-4-(prop-2-enoyl)piperazin-1-yl]-8-fluoro-7-(3-hydroxynaphthalen-1-yl)quinazolin-2-yl}oxy)ethyl]piperidin-4-yl}methoxy)-1,2-oxazol-5-yl]-3-methylbutanoyl]-4-hydroxy-N-[(1S)-1-[4-(4-methyl-1,3-thiazol-5-yl)phenyl]ethyl]pyrrolidine-2-carboxamide] | – | A (A ≥ 70) | < 100 | < 100 | – | – | KRas^G12C-HiBiT (MiaPaCa; 0.5% DMSO) DMax (HiBit-KRAS^G12C [1]; [5]): A (A ≥ 70)
6 | C=CC(=O)N1CCN(c2nc(OCCN3CCC(OCCOc4cc([C@H](C(=O)N5C[C@H](O)C[C@H]5C(=O)N[C@@H](C)c5ccc(-c6scnc6C)cc5)C(C)C)on4)CC3)nc3c(F)c(-c4cc(O)cc5ccccc45)c(Cl)cc23)C[C@@H]1CC#N (single isomer, unassigned) [Compound 21] | > 70 | – | – | – | 100 to 1000 | – | Dmax (HiBit-KRAS^G12C [1]; MIA PaCa-2, MiaPaCa-2 HiBit-KRas^G12C cells, 0.1% DMSO, read-out: KRas^G12C-HiBiT (MiaPaCa; 0.1% DMSO) DMax): > 70%; Dmax (HiBit-KRAS^G12C [2]; 0.1% DMSO, read-out: KRas^G12C-HiBit (SW1573; 0.1% DMSO) Dmax**): > 70%; Dmax (HiBit-KRAS^G12C [2]; [4]): > 70%
7 | C=CC(=O)N1CCN(c2nc(OCCN3CCC(OCCOc4cc([C@@H](C(=O)N5C[C@@H](O)C[C@H]5C(=O)N[C@@H](C)c5ccc(-c6scnc6C)cc5)C(C)C)on4)CC3)nc3c(F)c(-c4cc(O)cc5ccccc45)c(Cl)cc23)C[C@@H]1CC#N [Compound 5, (2S,4S)-1-[(2S)-2-{3-[2-({1-[2-({6-chloro-4-[(3S)-3-(cyanomethyl)-4-(prop-2-enoyl)piperazin-1-yl]-8-fluoro-7-(3-hydroxynaphthalen-1-yl)quinazolin-2-yl}oxy)ethyl]piperidin-4-yl}oxy)ethoxy]-1,2-oxazol-5-yl}-3-methylbutanoyl]-4-hydroxy-N-[(1S)-1-[4-(4-methyl-1,3-thiazol-5-yl)phenyl]ethyl]pyrrolidine-2-carboxamide] | – | – | – | – | > 1000 | < 35 | DC50 (HiBit-KRAS^G12C [1]; read-out: KRas^G12C-HiBiT (MiaPaCa; 0.1% DMSO) IC50, MiaPaCa-2 HiBit-KRas^G12C cells, 0.1% DMSO): 100 to 1000 nM
8 | C=CC(=O)N1CCN(c2nc(OCCN3CCC(COCC(=O)N[C@H](C(=O)N4C[C@@H](O)C[C@H]4C(=O)N[C@@H](C)c4ccc(-c5scnc5C)cc4)C(C)(C)C)CC3)nc3c(F)c(-c4cc(O)cc5ccccc45)c(Cl)cc23)C[C@@H]1CC#N [Compound 6, (2S,4S)-1-[(2S)-2-[2-({1-[2-({6-chloro-4-[(3S)-3-(cyanomethyl)-4-(prop-2-enoyl)piperazin-1-yl]-8-fluoro-7-(3-hydroxynaphthalen-1-yl)quinazolin-2-yl}oxy)ethyl]piperidin-4-yl}methoxy)acetamido]-3,3-dimethylbutanoyl]-4-hydroxy-N-[(1S)-1-[4-(4-methyl-1,3-thiazol-5-yl)phenyl]ethyl]pyrrolidine-2-carboxamide] | – | – | – | – | > 1000 | 35 to 70 | –
9 | C=CC(=O)N1CCN(c2nc(OCCN3CCC(OCCOCC(=O)N[C@H](C(=O)N4C[C@@H](O)C[C@H]4C(=O)N[C@@H](C)c4ccc(-c5scnc5C)cc4)C(C)(C)C)CC3)nc3c(F)c(-c4cc(O)cc5ccccc45)c(Cl)cc23)C[C@@H]1CC#N [Compound 7, (2S,4S)-1-[(2S)-2-{2-[2-({1-[2-({6-chloro-4-[(3S)-3-(cyanomethyl)-4-(prop-2-enoyl)piperazin-1-yl]-8-fluoro-7-(3-hydroxynaphthalen-1-yl)quinazolin-2-yl}oxy)ethyl]piperidin-4-yl}oxy)ethoxy]acetamido}-3,3-dimethylbutanoyl]-4-hydroxy-N-[(1S)-1-[4-(4-methyl-1,3-thiazol-5-yl)phenyl]ethyl]pyrrolidine-2-carboxamide] | – | – | – | – | > 1000 | 35 to 70 | –

Reference: patent US20220370416A1, “COMPOUNDS AND METHODS FOR TARGETED DEGRADATION OF KRAS” (Arvinas Operations, Inc., priority 2020, published 2022)
